According to patent US10407445B2, “Hepatitis C virus inhibitors” (ENANTA PHARMACEUTICALS, INC., priority 2013, dated 2019):
Like-named read-outs stand apart in the source and are kept apart here.

Legend:
Assay type in all cases: cell-based
[1] = tested on: GT1a replicon encoding NS5A mutation Q30R; assay: Transient replication assay, GT1a replicon with NS5A mutation Q30R; conditions: Hepatitis C virus
[2] = tested on: HCV GT 3a replicon; assay: HCV replicon assay, GT2a chimeric replicon expressing NS5A from GT3a strain S52; conditions: Hepatitis C virus, read-out: EC50 (nM) 3a
Description: (§1) The activity of compounds was determined against HCV replicons representing genotypes (GT) 1a, 1b, 2a, and 3a. To generate stable Huh-7.5-based cell lines, HCV replicons were engineered to express the Renilla luciferase reporter (hRluc) fused to the neomycin phosphotransferase (Neo) gene. GT2a and GT3a HCV replicons were based on the JFH-1 subgenomic replicon (Kato et al. 2003 Gastroenterology, 125:1808-1817), in which the NS5A gene was replaced with that of strains J6 and S52 (GT2a and G3a, respectively). The activity of compounds against GT1a replicons encoding NS5A mutations (M28T, Q30R, L31M, Y93C, and Y93H) was also determined in a transient replication assay. The parental GT1a and GT2a replicons (pH/SG-Neo(L+I) and pSG-Neo-JFH1, respectively) were licensed from Apath LLC (Saint Louis, Mo.). The parental GT 1b replicon (pFKi389lucubineo_3_3′_ET) was licensed from ReBLikon GmbH (Germany). HCV replicons were constructed by standard molecular biology techniques described below. All replicon constructs were verified by restriction enzyme digestion and DNA sequencing.
(§2) The plasmid pSG-hRlucNeo-JFH1 was generated from pSG-Neo-JFH1 (Kato et al. 2003, Gastroentrology 125:1808-1817). A fragment containing the JFH-1 5′ NTR—hRluc-Neo gene and two unique restriction sites (AgeI and PmeI) was synthesized (Integrated DNA Technologies, Coralville, Iowa). The resulting synthetic plasmid was digested with AgeI and PmeI and the excised fragment (5′NTR-hRluc-Neo) was ligated into pSG-Neo-JFH1 digested with the same enzymes to generate pSG-hRlucNeo-JFH1. To allow expression of heterologous NS5A sequences, an NS5A shuttle vector was generated from pSG-Neo-JFH1, in which the entire coding sequence of NS5A plus the first eight codons of NS5B were replaced with an AfeI restriction site. This was done by Infusion cloning (Clontech, Mountain View, Calif.) from two PCR products that were generated using pSG-Neo-JFH1 as a template and the following primer pairs:
(§3) Underlined sequences denote regions of overlap necessary for Infusion cloning. Purified PCR products were cloned directly into an NsiI/SnaBI digested pSG-Neo-JFH1 following the manufacturer's instructions to generate pSG-Neo-JFH1-5Ashuttle. The 2023 base pair AgeI/PmeI fragment from pSG-hRlucNeo-JFH1 was then ligated into pSG-Neo-JFH1-5Ashuttle to generate pSG-hRlucNeo-JFH1-5Ashuttle. To generate the 2a-2a-(J6) and 2a-3a-(S52) NS5A chimeric replicons, the full length NS5A sequences from GT2a strain J6 (accession AF177036) and GT3a strain S52 (accession GU814263), with the addition of the first eight codons of JFH-1 NS5B (5′-TCCATGTCATACTCCTGGACCGGG-3′), were synthesized by GeneArt (Life Technologies, Carlsbad Calif.). J6 and S52 NS5A sequences were then PCR amplified from the synthetic clones using the appropriate forward primer:
(§4) Underlined sequences denote regions of overlap with pSG-hRlucNeo-JFH1-5Ashuttle necessary for Infusion cloning. Purified PCR products were directly cloned into AfeI-digested shuttle vector by Infusion cloning following the manufacturer's instructions.
(§5) Stable HCV replicon cell lines were grown in complete media (Dulbecco's modified Eagle medium [DMEM], 2 mM L-glutamine, 0.1 mM essential amino acids, 1 mM sodium pyruvate, 10% heat inactivated fetal bovine serum) with the addition 500 μg/ml […] (G418). Huh7-lunet cells were maintained in the same medium without the addition of G418. Cells were routinely passaged at a dilution of 1:4 two times a week. The assay medium for both luciferase reporter HCV replicon and cytotoxicity assays used phenol red-free DMEM and lacked G418. For each stable replicon assay, a sixteen point half-log dilution series of compound was stamped (0.5 ul compound per well) into three replica 384-well plates, to which cells were added directly (4000 cells/well). […]

[3] = tested on: GT1a replicon encoding NS5A mutation L31V; assay: Transient replication assay, GT1a replicon with NS5A mutation L31V; conditions: Hepatitis C virus
[4] = tested on: GT1a replicon encoding NS5A mutation M28T; assay: Transient replication assay, GT1a replicon with NS5A mutation M28T; conditions: Hepatitis C virus
[5] = tested on: HCV GT 2a-J6 replicon; assay: HCV replicon assay, GT2a chimeric replicon expressing NS5A from GT2a strain J6; conditions: Hepatitis C virus, read-out: EC50 (nM) 2a-J6
Description: as §1, §2, §3, §4, §5

[6] = tested on: GT1a replicon encoding NS5A mutation Y93H; assay: Transient replication assay, GT1a replicon with NS5A mutation Y93H; conditions: Hepatitis C virus
[7] = tested on: GT1a replicon encoding NS5A mutation Y93C; assay: Transient replication assay, GT1a replicon with NS5A mutation Y93C; conditions: Hepatitis C virus
[8] = tested on: HCV GT 1a replicon; assay: HCV replicon assay, stable GT 1a replicon (Renilla luciferase); conditions: Hepatitis C virus, GT1A
Description: as §1
pH/SG-Neo(L+I) was modified to add the firefly luciferase reporter gene and additional adaptive mutations by replacing the pH/SG-Neo(L+I) NS3-NS5A coding region with the corresponding sequence of pH77-S, creating pH/SG-lucubineo-H77S as described (Borawski J et al. 2009, J Virol 83: 10058-10074). Subsequently, the firefly luciferase-Neo cassette was replaced with the hRluc-Neo cassette. To create a unique cloning site, the NotI restriction site in NS5B was removed using QuickChange II XL Site-Directed Mutagenesis Kit (Agilent) and the following primers: NotI KO Fwd 5′-CTCAAACTCACTCCAATAGCTGCCGCTGGCCGGCTGGAC-3′(G→T mutation removing NotI site underlined) (SEQ. ID No. 1) and NotI KO Rev 5′-GTCCAGCGGGCCAGCGGCAGCTATTGGAGTGAGTTTGAG-3′(C→A mutation removing NotI site underlined) (SEQ. ID No. 2). The resulting vector, pH/SG-lucubineo-H775-NotIKO, was sequenced to confirm the NS5B gene. The hRluc-Neo cassette was PCR amplified from pF9 cytomegalovirus (CMV) hRluc-Neo Flexi(R) (Promega) using Accuprime Super Mix II (Invitrogen) and the following primers, which introduce restriction sites: […]
The amplification product was subcloned into pCR2.1-TOPO (Invitrogen). The resulting plasmid was digested with AscI and NotI, and the excised hRluc-Neo fragment was ligated using the Promega Rapid Ligation Kit (Promega) into pH/SG-lucubineo-H775-NotIKO digested with the same enzymes.
as §5, with “cells/well). For the transient replication assay, Huh7-lunet cells in ice-cold phosphate buffered saline (PBS) were electroporated (BioRad electroporator; 950 uF, 270V) with 10 ug purified in vitro transcribed HCV replicon RNA, followed by resuspension in complete media and plating (8000 cells/well) into compound stamped 384-well plates. Luciferase activity of compound-treated cells was measured relative to DMSO-treated cells after 72 h incubation using RENILLA-GLO™ Luciferase Assay (Promega). Cytotoxicity (CC50) in the GT1b replicon cell line was analyzed using CELL TITER-GLO™ (Promega).” for “cells/well).”

[9] = comparative table, GT 1a, read-out: EC50 (nM) 1a
[10] = read-out: 1a EC50 (nM) 1a (H77S)

| Structure (SMILES) | EC50 ([1]; read-out: EC50 (nM) 1a Q30R) | EC50 [2] | EC50 ([3]; read-out: EC50 (nM) 1a L31V) | EC50 ([4]; read-out: EC50 (nM) 1a M28T) | EC50 [5] | EC50 ([6]; read-out: EC50 (nM) 1a Y93H) | EC50 ([7]; read-out: EC50 (nM) 1a Y93C) | EC50 [8, 9] | EC50 ([1]; read-out: 1a EC50 (nM) Q30R) | EC50 ([3]; read-out: 1a EC50 (nM) L31V) | EC50 ([4]; read-out: 1a EC50 (nM) M28T) | EC50 ([6]; read-out: 1a EC50 (nM) Y93H) | EC50 ([7]; read-out: 1a EC50 (nM) Y93C) | EC50 [8, 10] |
| --- | --- | --- | --- | --- | --- | --- | --- | --- | --- | --- | --- | --- | --- | --- |
| COC(=O)N[C@H](C(=O)N1C[C@]2(CCCCO2)C[C@H]1c1ncc(-c2ccc(-c3ccc4c(ccc5nc([C@@H]6CCCN6C(=O)[C@@H](NC(=O)OC)C(C)C)[nH]c54)c3)cc2)[nH]1)C(C)C | 0.03 nM | 1 nM | 0.3 nM | 0.01 nM | 27 nM | 9 nM | 0.2 nM | 0.01 nM | – | – | – | – | – | – |
| COC(=O)N[C@H](C(=O)N1C[C@@]2(CCCCO2)C[C@H]1c1ncc(-c2ccc(-c3ccc4c(ccc5nc([C@@H]6CCCN6C(=O)[C@@H](NC(=O)OC)C(C)C)[nH]c54)c3)cc2)[nH]1)C(C)C | 5 nM | 156 nM | 44 nM | 6 nM | 267 nM | 6 nM | 0.7 nM | 0.15 nM | – | – | – | – | – | – |
| COC(=O)N[C@H](C(=O)N1C[C@]2(CCCO2)C[C@H]1c1ncc(-c2ccc(-c3ccc4c(ccc5nc([C@@H]6CCCN6C(=O)[C@@H](NC(=O)OC)C(C)C)[nH]c54)c3)cc2)[nH]1)C(C)C [drawing 228] | – | – | – | – | – | – | – | – | 0.05 nM | 0.4 nM | 0.3 nM | 15 nM | 0.2 nM | 0.02 nM |
| COC(=O)N[C@H](C(=O)N1C[C@]2(CCOC2)C[C@H]1c1ncc(-c2ccc(-c3ccc4c(ccc5nc([C@@H]6CCCN6C(=O)[C@@H](NC(=O)OC)C(C)C)[nH]c54)c3)cc2)[nH]1)C(C)C [drawing 229] | – | – | – | – | – | – | – | – | 0.8 nM | 11 nM | 3 nM | 42 nM | 0.8 nM | 0.02 nM |
| COC(=O)N[C@H](C(=O)N1C[C@@]2(CCOC2)C[C@H]1c1ncc(-c2ccc(-c3ccc4c(ccc5nc([C@@H]6CCCN6C(=O)[C@@H](NC(=O)OC)C(C)C)[nH]c54)c3)cc2)[nH]1)C(C)C [drawing 230] | – | – | – | – | – | – | – | – | 0.4 nM | 1 nM | 0.5 nM | 7 nM | 0.4 nM | 0.01 nM |
| COC(=O)N[C@H](C(=O)N1C[C@@]2(CCCO2)C[C@H]1c1ncc(-c2ccc(-c3ccc4c(ccc5nc([C@@H]6CCCN6C(=O)[C@@H](NC(=O)OC)C(C)C)[nH]c54)c3)cc2)[nH]1)C(C)C [drawing 231] | – | – | – | – | – | – | – | – | 3 nM | 46 nM | 14 nM | 5 nM | 0.2 nM | 0.06 nM |
| COC(=O)N[C@H](C(=O)N1CC2(CCOCC2)C[C@H]1c1ncc(-c2ccc(-c3ccc4c(ccc5nc([C@@H]6CCCN6C(=O)[C@@H](NC(=O)OC)C(C)C)[nH]c54)c3)cc2)[nH]1)C(C)C [drawing 234] | 1 nM | 0.7 nM | 6 nM | 0.9 nM | 32 nM | 26 nM | 1 nM | 0.03 nM | – | – | – | – | – | – |
| COC(=O)N[C@H](C(=O)N1C[C@@]2(CCCOC2)C[C@H]1c1ncc(-c2ccc(-c3ccc4c(ccc5nc([C@@H]6CCCN6C(=O)[C@@H](NC(=O)OC)C(C)C)[nH]c54)c3)cc2)[nH]1)C(C)C [drawing 235] | 0.06 nM | 297 nM | 0.1 nM | 0.03 nM | 50 nM | 1 nM | 0.02 nM | 0.01 nM | – | – | – | – | – | – |
